Results on 5 molecules are retold here after US20220204497A1, “NOVEL COMPOUND HAVING ANTICANCER ACTIVITY, AND METHOD FOR PRODUCING SAME” (MEDICINAL BIOCONVERGENCE RESEARCH CENTER, priority 2019, published 2022).

The target of one data set is T1, AIMP2-DX2 (Homo sapiens, UniProt Q13155).
T1 sequence (Q13155 1-251 isoform Q13155-2): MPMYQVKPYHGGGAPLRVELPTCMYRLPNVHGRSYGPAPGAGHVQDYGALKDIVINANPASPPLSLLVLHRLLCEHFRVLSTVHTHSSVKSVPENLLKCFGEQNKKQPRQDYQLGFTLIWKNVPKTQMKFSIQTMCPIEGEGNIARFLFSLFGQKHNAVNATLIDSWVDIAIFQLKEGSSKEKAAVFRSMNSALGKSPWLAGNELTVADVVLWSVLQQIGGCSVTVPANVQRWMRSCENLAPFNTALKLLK
Kind of data set: DX2-nanoluciferase assay (DX2 expression change) in transfected A549 cells. To be noted: A549, 4 h; for inhibition at 10 µM: read-out: DX-Nanoluciferase activity (10 μM), 10 μM, 4 hours treatment, A549 cells transfected with nanoluciferase-DX2.

The subject of data set [1] is H460 cells. Kind of data set: In vivo cancer growth inhibition in H460 xenograft animal model. On the set-up: species or system BALB/cAnCr female rats. To be noted: 50 mg/kg intraperitoneally once every 2 days, 16 days. As for the experimental part:
FIG. 4 is a result of testing the cancer cell growth inhibitory effect of compound No. 55 and compound No. 89 among the compounds of the Formula 1 according to the present invention and the tumor distribution of the drug in the H460 xenograft animal model. Taxol was used as a positive control.
H460 cells (2×10^7) were subcutaneously implanted in 7-week-old BALB/cAnCr female […], and then Compound No. 55 or Compound No. 89 (50 mg/kg) and Taxol (10 mg/kg) were administered intraperitoneally once every 2 days. The drug was administered for 16 days, and the size of the tumor and the weight of the animal were measured during administration. After 16 days, the animals were sacrificed and the size and weight of the removed tumors were measured.

For the next data set, the system named is A549 cells. Kind of data set: Cell viability by MTT method in A549 cells. The class given is cell-based. On the set-up: concentration or dose not given beside the values. To be noted: 72 hours treatment. (In general: Tetrazolium assays rely on reduction of a dye to a coloured formazan, in cell work by metabolically active cells.)
For data set [2], the system named is H460 cells. Kind of data set: In vivo anti-cancer efficacy in mice transplanted with H460 cells. To be noted: 50 mg/kg intraperitoneally once every two days, 15 days. Set-up: species or system mouse. As for the experimental part: FIGS. 3a to 3d are the results of observing the tumor growth while administering compound No. 63 (50 mg/kg) once every two days intraperitoneally for a total of 15 days to a mouse transplanted with H460 cells. (FIG. 3a: macroscopic observation of each mouse and tumor after the end of administration, FIG. 3b: tumor growth curve over time, FIG. 3c: the weight of each tumor obtained at the end of administration, FIG. 3d: change in body weight of animals during administration period).
Next, the anti-cancer efficacy of compound No. 63 was evaluated in a mouse model transplanted with H460 cells.
Specifically, the compound No. 63 was intraperitoneally administered to mice transplanted with H460 cells at 50 mg/kg, once every two days for a total of 15 days.

Method for AIMP2-DX2: After cloning DX2 into a plasmid expressing nanoluciferase, the plasmid was transfected into A549 cells. Transfected cells were seeded 1×10^4 per well in a 96-well plate and stabilized for 12 hours. […] Cell viability was measured by the MTT method after 72 hours of treatment with each concentration of the compound in A549 cells.

For `COc1ccc(-c2csc(NC(=O)[C@H](CC(C)C)NS(=O)(=O)c3ccc(C)cc3)n2)cc1` [Compound 55, (S)—N-(4-(4-methoxyphenyl)thiazol-2-yl)-4-methyl-2-(4-methylphenylsulfonamido)pentanamide], the inhibition at 40 µM on AIMP2-DX2 (read-out: DX-Nanoluciferase activity (40 μM), 40 μM, 4 hours treatment, A549 cells transfected with nanoluciferase-DX2, inhibitory effect on AIMP2-DX2 expression) is 70.3 ± 3.23%. The “body weight of the animal during treatment (side effect)” value with H460 cells [1] is on record as “no change in the body weight”. Moreover, the “cancer growth inhibitory effect” value with H460 cells [1] (H460 xenograft) is recorded as “about 50%”. The “Cell Viability (% inhibition) (A549)” value with A549 cells was 89.25 ± 2.03%.

As to `COc1ccc(-c2csc(NC(=O)[C@H](Cc3c[nH]c4ccccc34)NS(=O)(=O)c3ccc(C)cc3)n2)cc1` [Compound 63, (S)-3-(1H-indol-3-yl)-N-(4-(4-methoxyphenyl)thiazol-2-yl)-2-(4-methylphenylsulfonamido)propanamide], the “body weight of the animals during administration” value in the data set on H460 cells [2] was “no change in the body weight”. Moreover, the tumor growth result in the data set on H460 cells [2] (H460 transplanted mice) is listed as “significantly inhibited the growth of tumors”. For the same molecule, the “Cell Viability (% inhibition) (A549)” value with A549 cells amounted to 86.53 ± 1.35%.

As for `CCOC(=O)C(Cc1c[nH]c2ccccc12)NC(=O)[C@H](Cc1c[nH]c2ccccc12)NS(=O)(=O)c1ccc(C)cc1` (stereo partly drawn) [Compound 224, Ethyl 2-((S)-3-(1H-indol-3-yl)-2-(4-methylphenylsulfonamido)propanamido)-3-(1H-indol-3-yl)propanoate], at AIMP2-DX2, the inhibition at 10 µM is 42.7 ± 8.97%. Also, the “Cell Viability (% inhibition) (A549)” value in the data set on A549 cells is on record as 93.83 ± 0.34%.

Regarding `Cc1ccc(S(=O)(=O)N[C@@H](Cc2c[nH]c3ccccc23)C(=O)NCCc2ccc(Cl)cc2)cc1` [Compound 225, (S)—N-(4-chlorophenethyl)-3-(1H-indol-3-yl)-2-(4-methylphenylsulfonamido)propanamide], the inhibition at 10 µM at AIMP2-DX2 was 88.7 ± 6.08%. For the same molecule, the “Cell Viability (% inhibition) (A549)” value in the data set on A549 cells is listed as 95.8 ± 0.48%.

Consider `Cc1ccc(S(=O)(=O)N[C@@H](Cc2c[nH]c3ccccc23)C(=O)NC(Cc2c[nH]c3ccccc23)C(=O)O)cc1` (stereo partly drawn) [Compound 226, 2-((S)-3-(1H-indol-3-yl)-2-(4-methylphenylsulfonamido)propanamido)-3-(1H-Indol-3-yl)propanoic acid], for which the inhibition at 10 µM at AIMP2-DX2 stood at 38.1 ± 14.9%. In addition, the “Cell Viability (% inhibition) (A549)” value with A549 cells was 1.11 ± 7.23%.
